From BindingDB's records for doi:10.1016/j.bmcl.2006.03.041 (Abbott Laboratories, 2006)

How the values were obtained:
[1] = target: T1, RAC-alpha serine/threonine-protein kinase [139-480,S378A,S381A,T450D,S473D] (Homo sapiens, UniProt P31749, S378A/S381A/S473D/T450D); experiment: Akt Kinase Assay
T1 construct: 139-480
Procedure: (§1) The kinase assay uses His-Akt1 and a biotinylated peptide as substrate. The biotinylated peptides were immobilized on streptavidin-coated FLASH plates. After reaction, the 33P-phosphopeptide captured on the FLASH plates was measured with a TopCount Packard Instruments […] (Packard Instruments, Boston, MA).

[2] = target: T2, Protein kinase C zeta type (Homo sapiens, UniProt Q05513); experiment: PKA/PKC Kinase Assay; settings: pH 7.5; 22 °C
T2 sequence (Q05513 whole entry): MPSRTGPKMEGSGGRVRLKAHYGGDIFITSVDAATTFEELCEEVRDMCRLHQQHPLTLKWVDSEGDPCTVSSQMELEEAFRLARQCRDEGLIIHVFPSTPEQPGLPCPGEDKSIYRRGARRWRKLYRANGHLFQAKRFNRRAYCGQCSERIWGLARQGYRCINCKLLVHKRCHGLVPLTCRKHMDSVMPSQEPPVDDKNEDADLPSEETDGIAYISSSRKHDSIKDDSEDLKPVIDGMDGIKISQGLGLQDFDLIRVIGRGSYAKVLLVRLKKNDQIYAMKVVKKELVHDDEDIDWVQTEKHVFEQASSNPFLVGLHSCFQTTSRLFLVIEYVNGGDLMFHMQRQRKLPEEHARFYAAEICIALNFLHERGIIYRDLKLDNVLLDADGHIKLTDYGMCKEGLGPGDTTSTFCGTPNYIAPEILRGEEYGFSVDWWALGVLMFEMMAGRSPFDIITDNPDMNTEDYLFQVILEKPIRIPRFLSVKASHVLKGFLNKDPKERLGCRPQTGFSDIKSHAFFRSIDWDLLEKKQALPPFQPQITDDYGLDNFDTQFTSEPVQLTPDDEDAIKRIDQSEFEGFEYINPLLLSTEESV
Procedure: as §1, with “purified recombinant enzyme” for “His-Akt1”, “MA). IC50s were calculated using the sigmoidal curve fit with the Assay Explorer software (MDL, Los Angeles, CA).” for “MA).”

T1 sequence (P31749 139-480 S378A/S381A/T450D/S473D): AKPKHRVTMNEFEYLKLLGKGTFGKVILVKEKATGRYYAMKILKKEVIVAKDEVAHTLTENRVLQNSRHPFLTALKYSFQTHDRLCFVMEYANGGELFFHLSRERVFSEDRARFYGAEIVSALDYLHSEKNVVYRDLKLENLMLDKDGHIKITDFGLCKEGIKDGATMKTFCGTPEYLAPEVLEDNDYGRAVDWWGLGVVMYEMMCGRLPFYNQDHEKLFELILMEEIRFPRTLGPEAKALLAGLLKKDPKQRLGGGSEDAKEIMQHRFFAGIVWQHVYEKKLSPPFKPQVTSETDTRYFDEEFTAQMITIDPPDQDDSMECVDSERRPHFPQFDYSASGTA

| Structure (SMILES) | IC50 ([1]; pH 7.5, 22 °C) [nM] | IC50 [1] [nM] | other results |
| --- | --- | --- | --- |
| N#Cc1ncc(OC[C@@H](N)Cc2c[nH]c3ccccc23)cc1-c1ccc2cnccc2c1 [5-[(2S)-2-amino-3-(1H-indol-3-yl)propoxy]-3-(isoquinolin-6-yl)pyridine-2-carbonitrile] | 4.6 |  |  |
| N[C@H](COc1cnc(C#Cc2ccccc2)c(-c2ccc3cnccc3c2)c1)Cc1c[nH]c2ccccc12 [6-{5-[(2S)-2-amino-3-(1H-indol-3-yl)propoxy]-2-(2-phenylethynyl)pyridin-3-yl}isoquinoline] | 1240 |  |  |
| N[C@H](COc1cnc(-c2ccco2)c(-c2ccc3cnccc3c2)c1)Cc1c[nH]c2ccccc12 [6-{5-[(2S)-2-amino-3-(1H-indol-3-yl)propoxy]-2-(furan-2-yl)pyridin-3-yl}isoquinoline] | 1.5 |  |  |
| N[C@H](COc1cnc(Cl)c(-c2ccc3cnccc3c2)c1)Cc1c[nH]c2ccccc12 [6-{5-[(2S)-2-amino-3-(1H-indol-3-yl)propoxy]-2-chloropyridin-3-yl}isoquinoline] | 1.8 |  | IC50 [2]: > 5000 nM |
| C=Cc1ncc(OC[C@@H](N)Cc2c[nH]c3ccccc23)cc1-c1ccc2cnccc2c1 [6-{5-[(2S)-2-amino-3-(1H-indol-3-yl)propoxy]-2-ethenylpyridin-3-yl}isoquinoline] | 2 |  |  |
| C#Cc1ncc(OC[C@@H](N)Cc2c[nH]c3ccccc23)cc1-c1ccc2cnccc2c1 [6-{5-[(2S)-2-amino-3-(1H-indol-3-yl)propoxy]-2-ethynylpyridin-3-yl}isoquinoline] | 0.8 |  |  |
| Cc1c(OC[C@@H](N)Cc2c[nH]c3ccccc23)cncc1-c1ccc2cnccc2c1 [6-{5-[(2S)-2-amino-3-(1H-indol-3-yl)propoxy]-4-methylpyridin-3-yl}isoquinoline] | 84 |  |  |
| N[C@H](COc1cc(-c2ccc3cnccc3c2)cnc1Cl)Cc1c[nH]c2ccccc12 [6-{5-[(2S)-2-amino-3-(1H-indol-3-yl)propoxy]-6-chloropyridin-3-yl}isoquinoline] | 12 |  |  |
| N[C@H](COc1cncc(-c2ccc3c(Cl)nccc3c2)c1)Cc1c[nH]c2ccccc12 [6-{5-[(2S)-2-amino-3-(1H-indol-3-yl)propoxy]pyridin-3-yl}-1-chloroisoquinoline] | 778 |  |  |
| N[C@H](COc1cncc(-c2ccc3c(F)nccc3c2)c1)Cc1c[nH]c2ccccc12 [6-{5-[(2S)-2-amino-3-(1H-indol-3-yl)propoxy]pyridin-3-yl}-1-fluoroisoquinoline] | 227 |  |  |
| COc1nccc2cc(-c3cncc(OC[C@@H](N)Cc4c[nH]c5ccccc45)c3)ccc12 [6-{5-[(2S)-2-amino-3-(1H-indol-3-yl)propoxy]pyridin-3-yl}-1-methoxyisoquinoline] | 39500 |  |  |
| N[C@H](COc1cncc(-c2ccc3cnc(C#Cc4ccccc4)cc3c2)c1)Cc1c[nH]c2ccccc12 [6-{5-[(2S)-2-amino-3-(1H-indol-3-yl)propoxy]pyridin-3-yl}-3-(2-phenylethynyl)isoquinoline] |  | 56 |  |
| N[C@H](COc1cncc(-c2ccc3cnc(-c4ccco4)cc3c2)c1)Cc1c[nH]c2ccccc12 [6-{5-[(2S)-2-amino-3-(1H-indol-3-yl)propoxy]pyridin-3-yl}-3-(furan-2-yl)isoquinoline] |  | 57 |  |
| CC#Cc1cc2cc(-c3cncc(OC[C@@H](N)Cc4c[nH]c5ccccc45)c3)ccc2cn1 [6-{5-[(2S)-2-amino-3-(1H-indol-3-yl)propoxy]pyridin-3-yl}-3-(prop-1-yn-1-yl)isoquinoline] |  | 180 |  |
| N[C@H](COc1cncc(-c2ccc3cnc(-c4ccncc4)cc3c2)c1)Cc1c[nH]c2ccccc12 [6-{5-[(2S)-2-amino-3-(1H-indol-3-yl)propoxy]pyridin-3-yl}-3-(pyridin-4-yl)isoquinoline] |  | 122 |  |
| N[C@H](COc1cncc(-c2ccc3cnc(Cl)cc3c2)c1)Cc1c[nH]c2ccccc12 [6-{5-[(2S)-2-amino-3-(1H-indol-3-yl)propoxy]pyridin-3-yl}-3-chloroisoquinoline] |  | 407 |  |
| C=Cc1cc2cc(-c3cncc(OC[C@@H](N)Cc4c[nH]c5ccccc45)c3)ccc2cn1 [6-{5-[(2S)-2-amino-3-(1H-indol-3-yl)propoxy]pyridin-3-yl}-3-ethenylisoquinoline] |  | 22 |  |
| CCc1cc2cc(-c3cncc(OC[C@@H](N)Cc4c[nH]c5ccccc45)c3)ccc2cn1 [6-{5-[(2S)-2-amino-3-(1H-indol-3-yl)propoxy]pyridin-3-yl}-3-ethylisoquinoline] |  | 144 |  |
| N[C@H](COc1cncc(-c2ccc3cnc(F)cc3c2)c1)Cc1c[nH]c2ccccc12 [6-{5-[(2S)-2-amino-3-(1H-indol-3-yl)propoxy]pyridin-3-yl}-3-fluoroisoquinoline] |  | 3.5 |  |
| N[C@H](COc1cncc(-c2ccc3cnc(-c4ccccc4)cc3c2)c1)Cc1c[nH]c2ccccc12 [6-{5-[(2S)-2-amino-3-(1H-indol-3-yl)propoxy]pyridin-3-yl}-3-phenylisoquinoline] |  | 305 |  |
| Cc1cc(-c2cncc(OC[C@@H](N)Cc3c[nH]c4ccccc34)c2)cc2ccncc12 [6-{5-[(2S)-2-amino-3-(1H-indol-3-yl)propoxy]pyridin-3-yl}-8-methylisoquinoline] |  | 995 |  |
| Nc1nccc2cc(-c3cncc(OC[C@@H](N)Cc4c[nH]c5ccccc45)c3)ccc12 [6-{5-[(2S)-2-amino-3-(1H-indol-3-yl)propoxy]pyridin-3-yl}isoquinolin-1-amine] | 160 |  |  |
| N[C@H](COc1cncc(-c2ccc3c(=O)[nH]ccc3c2)c1)Cc1c[nH]c2ccccc12 [6-{5-[(2S)-2-amino-3-(1H-indol-3-yl)propoxy]pyridin-3-yl}isoquinolin-1-ol] | 1240 |  |  |
| Nc1cc2cc(-c3cncc(OC[C@@H](N)Cc4c[nH]c5ccccc45)c3)ccc2cn1 [6-{5-[(2S)-2-amino-3-(1H-indol-3-yl)propoxy]pyridin-3-yl}isoquinolin-3-amine] |  | 3.4 |  |
| Nc1c(-c2cncc(OC[C@@H](N)Cc3c[nH]c4ccccc34)c2)ccc2cnccc12 [6-{5-[(2S)-2-amino-3-(1H-indol-3-yl)propoxy]pyridin-3-yl}isoquinolin-5-amine] |  | 15 |  |
| N#Cc1cc2cc(-c3cncc(OC[C@@H](N)Cc4c[nH]c5ccccc45)c3)ccc2cn1 [6-{5-[(2S)-2-amino-3-(1H-indol-3-yl)propoxy]pyridin-3-yl}isoquinoline-3-carbonitrile] |  | 640 |  |
| N[C@H](COc1cncc(-c2ccc3cnccc3c2)c1)Cc1c[nH]c2ccccc12 [13a (S-)] | 2 |  |  |
| N#C/C=C/c1c(OC[C@@H](N)Cc2c[nH]c3ccccc23)cncc1-c1ccc2cnccc2c1 [(2E)-3-{3-[(2S)-2-amino-3-(1H-indol-3-yl)propoxy]-5-(isoquinolin-6-yl)pyridin-4-yl}prop-2-enenitrile] | 697 |  |  |
